ChEMBL document CHEMBL1151387, “Constitutents of Magnolia Grandiflora. III. Toxic principle of the wood” (J Nat Prod, 1982)
Activity calls are given as the source filed them. The calls are words filed in the database; no cut-off is given here.

Tests used:
Mus musculus [1] = test: Toxicity in ip dosed mouse assessed as death at LD50; assay type: organism-based; conditions: in vivo
Mus musculus [2] = test: Toxicity in ip dosed mouse assessed as labored breathing and depression at LD50; assay type: organism-based; conditions: in vivo
[3] = Toxicity in ip dosed mouse; assay type: organism-based; conditions: in vivo
Mus musculus [4] = test: Effect on behavioral activity in ip dosed mouse assessed as occurrence of mydriasis for 30 mins; assay type: functional, organism-based
[5] = Toxicity in iv dosed mouse; assay type: organism-based; conditions: in vivo

Row | Structure (SMILES) | Activity (Mus musculus [1]) | Activity (Mus musculus [2]) | LD50 [3] | Activity (Mus musculus [4]) | LD50 [5]
1 | COc1ccc2c(c1O)-c1c(O)c(OC)cc3c1[C@H](C2)[N+](C)(C)CC3 [MAGNOFLORINE] | 15 min | 5 min | 19.6 mg/kg | Active | 
2 | COc1ccc2c(c1O)-c1c(OC)c(OC)cc3c1[C@H](C2)[N+](C)(C)CC3.[Cl-] |  |  |  |  | 2.2 mg/kg
3 | COc1ccc2c(c1O)-c1c(OC)c(OC)cc3c1[C@H](C2)[N+](C)(C)CC3.[I-] |  |  | 10 mg/kg |  | 
